In US5767116A, “Bicyclic aromatic compounds as therapeutic agents” (Knoll Atkiengesellschaft, priority 1993, dated 1998):
Counter-ions that a name gives are not always drawn. Like-named read-outs stand apart in the source and are kept apart here.

Experiments:
[1] = biological target: α1-adrenoceptors; assay: inhibition of tritiated ligand ([7-methoxy-^3 H]prazosin) binding to α1-adrenoceptors in vitro (whole cortical tissue); parameters: species or system rat (male Charles River CD); conditions: rat whole cortical tissue; for Ki: 30° C., 30 minutes, > from highest concentration which displaced ≤50% of the ligand; for % displacement at 10^-6 M, α1: 30 min, 1 µM
Description: The supernatant was centrifuged at 30,000 g at 4° C. for 10 minutes. […] Aliquots (400 μl; equivalent to 5 mg wet weight of tissue/tube) of this suspension were added to tubes containing the ligand (50 μl; 0.1 nM) and distilled water (50 μl; total binding) or phentolamine (50 μl; 5 μM; non-specific binding) or test compound (50 μl; at a single concentration of 10^-6 M or at 10 concentrations ranging from 10^-11 -10^-3 M). The ligand was [7-methoxy-^3 H]prazosin and the mixture was incubated at 30° C. for 30 minutes before the incubation was terminated by rapid filtration.
(§1) The filters were punched out into vials, scintillation fluid added and radioactivity determined by liquid scintillation counting. The percentage displacement of specific binding of the tritiated ligand was calculated for the single concentration (10^-6 M) of test compound. Displacement curves were then produced for those compounds which displaced ≥50% of specific binding of the tritiated ligand at 10^-6 M using a range of concentrations of the compound. […] The inhibition coefficient Ki was then calculated using the formula [formula] in which [ligand] is the concentration of the tritiated ligand used and KD is the equilibrium dissociation constant for the ligand.

[2] = biological target: T1, 5-HT1A receptors (Rattus norvegicus, UniProt P19327); assay: biochemical; format: binding, rat (male Charles River CD); conditions: for Ki: 25° C., 30 minutes
T1 sequence (P19327 1-422): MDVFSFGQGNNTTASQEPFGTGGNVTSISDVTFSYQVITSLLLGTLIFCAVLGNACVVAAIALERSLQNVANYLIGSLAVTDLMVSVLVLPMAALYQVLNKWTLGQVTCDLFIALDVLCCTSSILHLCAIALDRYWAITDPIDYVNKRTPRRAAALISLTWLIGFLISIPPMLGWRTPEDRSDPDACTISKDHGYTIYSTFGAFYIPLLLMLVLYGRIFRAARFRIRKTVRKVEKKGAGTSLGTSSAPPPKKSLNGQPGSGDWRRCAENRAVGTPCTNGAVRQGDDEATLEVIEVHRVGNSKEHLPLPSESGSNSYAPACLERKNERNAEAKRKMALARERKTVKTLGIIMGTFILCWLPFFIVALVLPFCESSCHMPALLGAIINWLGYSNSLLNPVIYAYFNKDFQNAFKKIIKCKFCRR
Description: The pellet was rehomogenised in the same buffer, incubated at 37° C. for 10 minutes and centrifuged at 30,000 g at 4° C. for 10 minutes. […] Aliquots (400 μl; equivalent to 2.5 mg wet weight of tissue/tube) of this suspension were added to tubes containing the ligand (50 μl; 2 nM) and distilled water (50 μl; total binding) or 5-HT (50 μl; 10 µM; non-specific binding) or test compound (50 μl; at a single concentration of 10^-6 M or at 10 concentrations ranging from 10^-11 -10^-3 M). The ligand was [^3 H]8-hydroxy-2-(dipropylamino)tetralin([^3 H]8-OH-DPAT) and the mixture was incubated at 25° C. for 30 minutes before the incubation was terminated by rapid filtration.
as §1

[3] = biological target: D2 dopamine receptors (Rattus norvegicus, UniProt P61169); assay: biochemical; format: binding, rat (male Charles River CD)
Sequence of D2 dopamine receptors (P61169 whole entry): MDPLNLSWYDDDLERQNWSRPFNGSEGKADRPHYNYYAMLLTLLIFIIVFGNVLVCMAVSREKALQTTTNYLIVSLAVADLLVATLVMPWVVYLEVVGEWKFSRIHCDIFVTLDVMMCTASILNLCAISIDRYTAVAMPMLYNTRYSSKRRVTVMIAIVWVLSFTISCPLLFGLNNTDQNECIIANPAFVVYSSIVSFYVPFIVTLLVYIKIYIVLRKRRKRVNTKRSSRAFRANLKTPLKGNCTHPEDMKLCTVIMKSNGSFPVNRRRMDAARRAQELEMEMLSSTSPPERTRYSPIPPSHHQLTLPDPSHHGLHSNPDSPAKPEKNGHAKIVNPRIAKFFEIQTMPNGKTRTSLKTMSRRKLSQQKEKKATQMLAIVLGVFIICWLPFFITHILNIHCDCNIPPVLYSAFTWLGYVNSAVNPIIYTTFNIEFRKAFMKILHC

[4] = biological target: T2, α2-adrenoceptors (Rattus norvegicus, UniProt P22909); assay: inhibition of tritiated ligand (tritiated idazoxan) binding to α2-adrenoceptors in vitro (frontal cortical tissue); parameters: species or system rat (male Charles River CD); conditions: for Ki: 0° C., 75 minutes, > from highest concentration which displaced ≤50% of the ligand; for inhibition at 1 µM: read-out: % displacement at 10^-6 M, α2, 10^-6 M, rat frontal cortical tissue, tritiated idazoxan
T2 sequence (P22909 1-465): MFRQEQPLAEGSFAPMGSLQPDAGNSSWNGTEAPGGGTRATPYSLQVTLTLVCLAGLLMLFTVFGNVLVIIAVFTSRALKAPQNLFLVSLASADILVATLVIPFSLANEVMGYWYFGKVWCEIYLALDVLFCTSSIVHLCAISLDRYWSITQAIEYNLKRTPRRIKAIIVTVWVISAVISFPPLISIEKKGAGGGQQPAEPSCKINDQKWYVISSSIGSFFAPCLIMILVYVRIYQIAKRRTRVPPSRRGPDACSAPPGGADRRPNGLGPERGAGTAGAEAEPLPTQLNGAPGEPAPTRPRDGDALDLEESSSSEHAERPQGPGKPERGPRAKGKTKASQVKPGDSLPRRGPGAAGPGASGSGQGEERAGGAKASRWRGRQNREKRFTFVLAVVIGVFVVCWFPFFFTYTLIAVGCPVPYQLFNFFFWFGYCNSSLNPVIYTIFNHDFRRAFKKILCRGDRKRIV
Description: Frontal cortical tissue from the brains of male Charles River CD rats weighing between 150-250 g were homogenised in ice-cold 0.25M sucrose (1:30 w/v) and centrifuged at 1,000 g at 4° C. for 12 minutes. The supernatant was stored on ice and the pellet was rehomogenised in 0.25M sucrose (1:15 w/v) and centrifuged at 850 g at 4° C. for 12 minutes. Combined supernatants were diluted with 5 mM Tris-HCl (pH 7.5) containing 0.5M ethylenediamine tetraacetic acid (EDTA) readjusted to pH 7.5 (at 25° C.) with 1M sodium hydroxide to 1:80 w/v, and centrifuged at 30,000 g at 4° C. for 10 minutes. The resulting pellet was resuspended in 5 mM Tris-HCl (pH 7.5) containing 5.68 mM L-ascorbic acid and 5 mM EDTA readjusted to pH 7.5 (at 25° C.) with 1M sodium hydroxide, and centrifuged at 30,000 g for 10 minutes. The final pellet was resuspended in 50 mM Tris-HCl (pH 7.5) containing 5.68 mM L-ascorbic acid and 5 mM EDTA (equivalent to 12.5 mg wet weight of tissue/ml) and used immediately in the binding assay. Aliquots (400 μl; equivalent to 5 mg wet weight of tissue/tube) of this suspension were added to tubes containing the ligand (50 μl; 1 nM) and distilled water (50 μl; total binding) or phentolamine (50 μl; 5 μM; non-specificbinding) or test compound (50 μl; at a single concentration of 10^-6 M or at 10 concentrations ranging from 10^-11 -10^-3 M). The ligand was tritiated idazoxan ((1,4-[6,7(n)-^3 H]benzodioxan-2-yl)-2-imidazoline hydrochloride) and the mixture was incubated at 0° C. for 75 minutes before the incubation was terminated by rapid filtration.
as §1, with “The filters were washed with ice-cold Tris-HCl buffer and dried. The filters” for “The filters”

[5] = rat hippocampal tissue, [^3 H]8-OH-DPAT
[6] = rat striatal tissue, tritiated (S)-sulpiride, 4° C., 40 minutes
[7] = rat frontal cortical tissue, tritiated idazoxan
[8] = 10^-6 M, rat hippocampal tissue, [^3 H]8-OH-DPAT, read-out: % displacement at 10^-6 M, 5-HT1A
[9] = read-out: % displacement at 10^-6 M, 5-HT1A, 10^-6 M, rat hippocampal tissue, [^3 H]8-OH-DPAT
[10] = 10^-6 M, rat hippocampal tissue, [^3 H]8-OH-DPAT

Compound	Ki [1] [nM]	Ki [2, 5] [nM]	Ki [3, 6] [nM]	Ki [4, 7] [nM]	% displacement at 10^-6 M, α1 [1] [%]	other results
COc1ccccc1N1CCC(CNCC2COc3cc(Cl)c(Cl)cc3O2)CC1 (stereo not drawn) [Example 21, N-(6,7-dichloro-1,4-benzodioxan-2-ylmethyl)-1-[1-(2-methoxyphenyl)piperid-4-yl]methylaminehydrochloride]	> 500			> 500		inhibition at 1 µM [2, 8]: 74%; inhibition at 1 µM ([3]; 10^-6 M, rat striatal tissue, tritiated (S)-sulpiride, read-out: % displacement at 10^-6 M, D2): 104%
Cl.Clc1ccccc1N1CCC(CNCC2COc3ccccc3O2)CC1 (stereo not drawn) [Example 22, N-(1,4-benzodioxan-2-ylmethyl)-1-[1-(2-chlorophenyl)piperid-4-yl]methylamine hydrochloride]			43.5		71	inhibition at 1 µM [2, 9]: 95%; inhibition at 1 µM [4]: 63%
COc1cccc2c1OC(CNCC1CCN(c3cccc4c3OCC4)CC1)CO2.Cl (stereo not drawn) [Example 25, 1-[1-(2,3-dihydrobenzo[b]furan-7-yl)piperid-4-yl]-N-(8-methoxy-1,4-benzodioxan-2-ylmethyl) methylamine hydrochloride]			20.9		99	inhibition at 1 µM [2, 9]: 101%; inhibition at 1 µM [4]: 96%
N-(5-fluoro-1,4-benzodioxan-2-ylmethyl)-1-[1-(2-methoxyphenyl) piperid-4-yl]methylamine hydrochloride and N-(8-fluoro-1,4-benzodioxan-2-ylmethyl)-1-[1-(2-methoxyphenyl) piperid-4-yl]methylamine hydrochloride [Example 23]					92	% displacement at 10^-6 M, 5-HT1A [2, 10]: 92%; Ki [3]: 43 nM; % displacement at 10^-6 M, α2 ([4]; 10^-6 M, rat frontal cortical tissue, tritiated idazoxan, 1 µM): 75%
N-(7-chloro-1,4-benzodioxan-2-ylmethyl)-1-[1-(2-methoxyphenyl) piperid-4-yl]methylamine and N-(6-chloro-1,4-benzodioxan-2-ylmethyl)-1-[1-(2-methoxy phenyl)-piperid-4-yl]methylamine 1.7 hydrochloride hydrate [Example 27]			61.7	> 500	58	% displacement at 10^-6 M, 5-HT1A [2, 10]: 94%
N-(7-chloro-1,4-benzodioxan-2-ylmethyl)-1-[1-(2-methoxyphenyl) piperid-4-yl]methylamine and N-(6-chloro-1,4-benzodioxan-2-ylmethyl)-1-[1-(2-methoxyphenyl) piperid-4-yl]methylamine hydrochloride hydrate [Example 26]	> 500		82.5	> 500		% displacement at 10^-6 M, 5-HT1A [2, 10]: 88%

Second part, led by results:

Ki [1] [nM]	Ki [2, 5] [nM]	Ki [3, 6] [nM]	Ki [4, 7] [nM]	Compound	% displacement at 10^-6 M, α1 [1] [%]	other results
14	18.8	110	70	FC(F)(F)c1cccnc1NCCNCC1COc2ccccc2O1 (stereo not drawn) [Example 8, N-(1,4-benzodioxan-2-ylmethyl)-N'-[3-(trifluoromethyl)-2-pyridyl)]-ethanediamine dihydrochloride]		
34	8.2	46.4	> 500	COc1cccc2c1CC(CNCC1CCN(c3ncccn3)CC1)CC2 (stereo not drawn) [Example 9, N-(8-methoxy-1,2,3,4-tetrahydronaphth-2-ylmethyl)-1-[1-(pyrimidin-2-yl)piperid-4-yl]methylamine 1.1 hydrochloride]		
339	7.7	310	> 500	Oc1cccc2c1CC(CNCC1CCN(c3ncccn3)CC1)CC2 (stereo not drawn) [Example 10, 7-{N-[1-(pyrimidin-2-yl)piperid-4-ylmethyl}-aminomethyl)-5,6,7,8-tetrahydronaphth-1-ol dihydrobromide]		
31	14.7	12.9	> 500	COc1cccc2c1CC(CNCC1CCN(c3ncccn3)CC1)CO2 (stereo not drawn) [Example 11, N-(5-methoxy-3,4-dihydro-2H-1-benzopyran-3-ylmethyl)-1-(1-(pyrimidin-2-yl)piperid-4-yl]methylamine monofumarate]		
		4.3	> 500	COc1ccccc1NCCCNCC1COc2cccc(OC)c2O1.O=C(O)/C=C\C(=O)O (stereo not drawn) [Example 17, N-(8-methoxy-1,4-benzodioxan-2-ylmethyl)-N'-(2-methoxyphenyl)-1,3-propanediamine maleate]	93	inhibition at 1 µM [2, 8]: 99%
> 500		81.3	> 500	COc1ccccc1N1CCC(CNCC2COc3ccc4ccccc4c3O2)CC1 (stereo not drawn) [Example 24, 1-[1-(2-methoxyphenyl)piperid-4-yl]-N-(naphtho[1,2-b]dioxan-2-ylmethyl) methylamine hydrochloride 1.3 hydrate]		inhibition at 1 µM [2, 8]: 97%
